Measurements taken from patent US20040198716A1, “Cysteine protease inhimbitors” (priority 2001, published 2004).

Assays:
[1] = target: T1, human recombinant caspase-3 (Homo sapiens, UniProt P42574); assay: In vitro high throughput caspase-3 assay; assay type: biochemical; conditions: for Percent Activity: percentage of the positive control, 20-250 μM test compound, lower = better inhibition, negative = better than control caspase inhibitor; for Ki: calculated from IC50 according to Equation 1, read-out: Ki(app); for IC50: fixed substrate concentration of 55 μM, inhibitors 75 to 0.067 μM in duplicate
T1 construct: purchased Sigma
T1 sequence (P42574 29-175 limits assumed): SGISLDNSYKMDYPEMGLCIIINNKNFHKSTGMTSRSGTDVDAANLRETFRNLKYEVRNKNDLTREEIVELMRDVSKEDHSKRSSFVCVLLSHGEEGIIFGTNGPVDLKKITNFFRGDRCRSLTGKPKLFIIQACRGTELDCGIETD
T1 sequence (P42574 176-277 limits assumed): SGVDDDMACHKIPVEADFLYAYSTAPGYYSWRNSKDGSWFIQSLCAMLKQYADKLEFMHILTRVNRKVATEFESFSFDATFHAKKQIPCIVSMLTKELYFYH
Description: Purified Human recombinant caspase-3, fluorescence labeled substrate (Acetyl-Asp-Glu-Val-Asp-7-amino-4-trifluoromethyl coumarin), and known inhibitor (Z-Asp-Glu-Val-Asp-fluoromethyl ketone) can be purchased from Sigma Chemical Co. (St. Louis, Mo.). The enzyme reactions are carried out at room temperature in 10 mM PIPES pH=7.4, 2 mM EDTA, 0.1% CHAPS, 5 mM DTT reaction buffer. Each well on the 96 well plate contains the above reaction buffer plus 55 μM fluorescence labeled substrate, 0.125 μg caspase-3, and 20-250 μM test compound. Positive and negative controls are present on each assay plate. A standard curve is generated using 7-amino-4-trifluoromethyl coumarin in the concentration range from 0.15 μM to 5.0 μM. The reactions are preferably read every 0.5 hours using a fluorescence microtiter plate reader set for 390 nm excitation and 538 nm emission for the first 4 hours after which the plates are left at room temperature overnight. One reading is taken the next morning as a final measurement.
To determine the caspase inhibitory activity of these compounds, the in vitro high throughput caspase-3 assay presented herein was utilized. Purified human recombinant caspase-3, fluorescence labeled substrate (Acetyl-Asp-Glu-Val-Asp-7-amino-4-trifluoromethyl coumarin), and known inhibitor (Z-Asp-Glu-Val-Asp-fluoromethyl ketone) were purchased from Sigma. The enzyme reactions were carried out at room temperature in 10 mM PIPES pH=7.4, 2 mM EDTA, 0.1% CHAPS, 5 mM DTT reaction buffer. Each well on the 96 well plate contained the above reaction buffer plus 55 μM fluorescence labeled substrate, 0.125 μg caspase-3, and 20-250 μM test compound. Positive and negative controls were present on each assay plate. A standard curve was generated using 7-amino-4-trifluoromethyl coumarin in the concentration range from 0.15 μM to 5.0 μM. The reactions were read every 0.5 hours using a fluorescence microtiter plate reader set for 390 nm excitation and 538 nm emission for the first 4 hours after which the plates were left at room temperature overnight. One reading was taken the next morning as a final measurement.
Ki determinations were carried out using the above assay system. […] Ki(app) was calculated according to Equation 1: [formula]
The concentration of inhibitors ranged from 75 to 0.067 μM with each inhibitor concentration assayed in duplicate. The Km for the substrate was determined from a standard Lineweaver-Burke plot.

[2] = target: T2, Human Rhinovirus serotype 1A 3C Protease (Human rhinovirus 1A, UniProt P23008); assay: 3C Protease Biochemical Assay (FRET); conditions: 30° C., 2-6uM substrate, 416 nM 3CP
T2 construct: used to clone the 3C Protease into the expression vector pET16-b; made in house; host or cells: E. coli BL21-DE3-pLys-S
T2 sequence (P23008 1515-1697): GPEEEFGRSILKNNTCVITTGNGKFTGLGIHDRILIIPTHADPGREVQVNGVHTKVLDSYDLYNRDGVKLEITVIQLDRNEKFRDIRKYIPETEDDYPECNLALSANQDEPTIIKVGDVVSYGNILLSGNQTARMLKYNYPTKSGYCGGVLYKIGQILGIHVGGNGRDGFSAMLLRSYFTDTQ
Description: Human Rhinovirus serotype 1A (ATCC) was used to clone the 3C Protease into the expression vector pET16-b and transformed for production into the E. coli strain BL21-DE3-pLys-S. 3C Protease expression was induced with 1 mM IPTG at 25° C. and purified from the soluble protein extract by chromatography on a SourceQ (Pharmacia) followed by gel filtration. HRV 3CP activity was measured by fluorescence resonance energy transfer using a dimodified decapeptide substrate MOC-[…]DNP-NH2 (7-methoxy coumarin-4-acetic acid fluorochrome and dinitrophenol quencher) with a Km value of 16.8 μM. Inhibition was measured as a change in initial velocity (V0) as a function of inhibitor (I) concentration and substrate (S) concentration. […] Fluorescence was monitored by excitation at 328 nm and emission at 393 nm with 10 nm cutoffs. Data were analyzed with the nonlinear regression analysis program EnzFitter (BioSoft) with the equation:
Ki=(I/((VmaxxS)/V0)/Ks)−I−S
Substrate concentrations used were lower than the Km of the substrate (16.8 uM) so no corrections for an S/Km term were used.

| Compound | Percent Activity [1] [%] | Ki [1] [µM] | IC50 [1] [µM] | Ki [2] [µM] |
| --- | --- | --- | --- | --- |
| CC(C)=CCC(O)C1CC(=O)c2c(O)ccc(O)c2C1=O (mixture of isomers) [cpi0138.0001] | 22.68 |  |  |  |
| CC(C)=CCC(O)C1CC(=O)c2c(O)ccc(O)c2C1=O (mixture of isomers) [cpi0138.0002] | 30.37 |  |  |  |
| O=C1C=CC(=O)c2ccccc21 [cpi0126] | −0.30 | 0.642 | 4.04 | 515 |
| CC1=CC(=O)c2ccccc2C1=O [cpi0127] | 1.32 | 0.694 | 4.37 | 242 |
| O=C1C(Cl)=C(Cl)C(=O)c2ccccc21 [cpi0128] | 1.67 | 1.05 | 6.62 |  |
| O=C1c2ccccc2C(=O)c2c(O)ccc(O)c21 [cpi0130] | 45.72 |  |  |  |
| O=C(O)c1c(O)c2c(c(O)c1Cl)C(=O)c1ccccc1C2=O [cpi0136.0001] | −8.938 | 0.807 | 5.09 |  |
| O=C1C=CC(=O)c2c(O)cccc21 [cpi0136.0002] | −6.091 | 0.0026 | 0.02 |  |
| NC(=O)NN=C1C=CC(=O)c2c(O)cccc21 [cpi0136.0004] | −3.391 | 0.0682 | 0.43 |  |
| O=C1c2ccccc2C(=O)c2c1cc(S(=O)(=O)O)c(O)c2O [cpi0136.0005] | −2.336 | 1.41 | 8.9 |  |
| O=C1c2ccccc2C(=O)c2c(O)c(O)cc(O)c21 [cpi0136.0006] | −2.295 | 0.762 | 4.8 |  |
| Nc1ccc(O)c2c1C(=O)c1ccccc1C2=O [cpi0136.0007] | −0.8437 | 1.77 | 11.2 |  |
| O=C1C=CC(=NNc2cc([N+](=O)[O-])cc([N+](=O)[O-])c2)c2cccc(O)c21 [cpi0136.0008] | −0.715 | 0.557 | 3.51 |  |
| O=C1C(c2ccc(O)c(O)c2)=C(O)C(=O)c2c(O)cc(O)cc21 [cpi0136.0010] | 1.452 | 9.76 | 61.5 |  |
| O=C(O)Cc1cc(O)c2c(c1O)C(=O)c1ccccc1C2=O [cpi0136.0011] | 2.42 | 1.13 | 7.13 |  |
| Cc1ccc2[nH]c3c(cc(O)c4c(=O)c5ccccc5c(=O)c43)oc2c1 [cpi0136.0017] | 24.8 | 16.7 | 106 |  |
| O=C1C=CC(=NNc2ccc([N+](=O)[O-])cc2[N+](=O)[O-])c2cccc(O)c21 [cpi0136.0020] | 36.98 | 54.2 | 342 |  |
| COc1c(C)c([N+](=O)[O-])c(O)c2c1C(=O)c1ccccc1C2=O [cpi0136.0024] | 51.3817 | 3.05 | 19.2 |  |
| O=C(COc1cc(O)c2c(=O)cc(-c3ccccc3)oc2c1)OCc1ccccc1 [cpi0136.0025] | 54.1256 | 40.5 | 255 |  |
| O=C1C(Br)=C(Br)C(=O)c2c1ccc(Br)c2O [cpi0139] |  | 69.8 | 440 | 154 |
| O=C1C(Br)=C(Br)C(=O)c2c(O)c(Br)c(Br)c(O)c21 [cpi0140] |  | 0.503 | 3.17 |  |

| Compound | Percent Activity [1] [%] | Ki [1] [µM] | IC50 [1] [µM] | Ki [2] [µM] |
| --- | --- | --- | --- | --- |
| O=C1C(Br)=CC(=O)c2c(O)cccc21 [cpi0141] |  | 4.91 | 30.9 | 73 |
| CC(=O)OCCNc1cc(Br)c2noc3c2c1C(=O)c1ccccc1-3 [cpi0156.0034] | −0.6303 |  |  |  |
| O=C1c2ccccc2-c2onc3ccc(Oc4c(F)c(F)c(F)c(F)c4F)c1c23 [cpi0156.0042] | 11.08 |  |  |  |
| O=C1C(Cl)=C(N2CCOCC2)C(=O)c2ccccc21 [cpi0156.0044] | −1.376 |  |  |  |
| O=C(NC1CCCCC1)c1ccc2c3c(onc13)-c1ccccc1C2=O [cpi0156.0045] | 3.338 |  |  |  |
| CC(=O)N(Cc1ccccc1)C1=C(Cl)C(=O)c2ccccc2C1=O [cpi0156.0046] | −1.772 |  |  |  |
| O=C1c2ccccc2-c2onc3c(N4CCN(c5ccccc5)CC4)ccc1c23 [cpi0156.0047] | 28.63 |  |  |  |
| O=C1c2ccccc2-c2onc3c(N4CCCCC4)cc(Nc4ccccc4)c1c23 [cpi0156.0048] | 18.82 |  |  |  |
| CNc1cc(Nc2ccccc2)c2c3c(onc13)-c1ccccc1C2=O [cpi0156.0051] | 6.782 |  |  |  |
| CN(C)c1cc(Nc2ccccc2)c2c3c(onc13)-c1ccccc1C2=O [cpi0156.0052] | 31.97 |  |  |  |
| COc1ccc2noc3c2c1C(=O)c1ccccc1-3 [cpi0156.0054] | −3.264 |  |  |  |
| Cc1cccc(Oc2ccc3noc4c3c2C(=O)c2ccccc2-4)c1 [cpi0156.0055] | −1.448 |  |  |  |
| O=C1c2ccccc2-c2onc3ccc(Cl)c1c23 [cpi0156.0056] | 1.882 |  |  |  |
| COc1ccc2c(c1OC)C(=O)OC2CC(=O)c1ccc(O)cc1O (stereo not shown) [cpi0156.D1] | 24.72 |  |  |  |
| O=C(NN=Cc1ccccc1)C12CC3CC(C1)CC(C(=O)NN=Cc1ccccc1)(C3)C2 [cpi0157.B2] | 50.76 | 52.8 |  |  |
| Cc1cc(C(=O)NN)c2cc(Br)ccc2n1 [cpi0157.C3] | 36.41 | 131 | 825 |  |
| N#CC1=C(N)SC(N)=C(C#N)C1c1cccc(F)c1 [cpi0157.F9] | 31.50 | 39.9 | 251 |  |
| N#CC1=C(N)NC(SCc2ccccc2)=C(C#N)C12CCCC2 [cpi0157.F10] | 19.48 | 14.5 | 91 |  |
| COc1cc(NC2OC(CO)C(O)C(O)C2O)ccc1C (stereo not shown) [cpi0159.C3] | 33.47 |  |  |  |
| O=C(O)C1Cc2c([nH]c3ccccc23)C(c2ccncc2)N1 (stereo not shown) [cpi0190] |  | 0.0054 | 0.03 |  |
